This is an account of results in patent publication US20090233906A1, “IMIDAZOAZEPINONE COMPOUNDS” (priority 2006, published 2009).

In general, IC50 refers to the concentration that gives 50% inhibition.

Each structure is given as a SMILES string.

The subject of the experiment is human T-bet. The experiment can be described thus: HEKT-bet-luc assay (normalized). Type of experiment: cell-based. The settings on record: Homo sapiens, HEK293, 24 h, normalized HEKT-bet-luc IC50; engineered HEK cells, T-box responsive luciferase reporter, compound 24 hours; normalized to reference ER-819544; read-out: IC50. How it is done: HEKT-bet-luc assay: This assay measures a T-bet dependent reporter (luciferase) activity in engineered HEK cells that express a human T-bet and a T-box responsive element driving luciferase reporter. HEKT-bet cells were plated at 2×10^4/well in 96-well plate and compound was added into cell culture for 24 hours. Luciferase activity was measured by adding 50 μl of Steady-Glo reagent (Promega) and samples were read in Victor V reader (PerkinElmer). The activity of compound was determined by comparing compound treated samples to non-compound treated vehicle controls. The IC50 values were calculated utilizing a maximum value corresponding to the amount of luciferase in the absence of a test compound and a minimum value corresponding to a test compound value obtained at maximum inhibition.
Determination of Normalized HEKT-bet IC50 values: Compounds were assayed in microtiter plates. Each plate included a reference compound which was ER-819544. The un-normalized IC50 value for a particular compound was divided by the IC50 value determined for the reference compound in the same microtiter plate to provide a relative potency value. The relative potency value was then multiplied by the established potency of the reference compound to provide the normalized HEKT-bet IC50 value. […] The IC50 values provided herein were obtained using this normalization method.
A general note: Reporter assays use an easily measured gene product as a stand-in for the process of interest.
Turning to `COc1cc2c(c(OC)c1)C(C)C=C1N(C2)C(=O)N(C)C12CCN(Cc1cccc3ncccc13)CC2` (centres unmarked) [compound 819688], the IC50 amounted to 288 nM.

As to `COc1cc2c(c(OC)c1)C(C)C=C1N(C2)C(=O)N(C)C12CCN(Cc1cccc3cccnc13)CC2` (centres unmarked) [compound 819689], the half-inhibitory concentration (IC50) stood at 169 nM.

Take `COCCN1C(=O)N2Cc3ccoc3C(C)(C)C=C2C12CCN(Cc1cc(OC)cc(OC)c1)CC2` [compound 819698]: the half-maximal inhibitory concentration (IC50) was found to be 1980 nM.

`COCCN1C(=O)N2Cc3cc(OC)c(OC)c(OC)c3C(C)(C)C=C2C12CCN(Cc1cc(OC)cc(OC)c1)CC2` [compound 819701]: the concentration for half-maximal inhibition (IC50) amounted to 21 nM.

`CCN1C(=O)N2Cc3cc(OC)cc(OC)c3/C=C/C=C\2C12CCN(Cc1cc(OC)cc(OC)c1)CC2` [compound 819702]: the concentration for half-maximal inhibition (IC50) was determined as 600 nM.

Take `C=C1C=C2N(Cc3cc(OC)cc(OC)c31)C(=O)N(CC)C21CCN(Cc2cc(OC)cc(OC)c2)CC1` [compound 819703]: the IC50 came to 247 nM.

In the case of `COCCN1C(=O)N2Cc3cc(F)cc(F)c3C(C)(C)C=C2C12CCN(Cc1cc(OC)cc(OC)c1)CC2` [compound 819704], the IC50 came out at 2760 nM.

On to `CCN1C(=O)N2Cc3cc4c(cc3C(C)(C)C=C2C12CCN(Cc1cc(OC)cc(OC)c1)CC2)OCO4` [compound 819708], for which the IC50 came out at 3600 nM.

With `COc1cc(CN2CCC3(CC2)C2=CC(C)(C)c4c(cc(OC)cc4OC)CN2C(=O)N3CCO)c(F)c(OC)c1` [compound 819724], the concentration for half-maximal inhibition (IC50) was 104 nM.

`COc1cc2c(c(OC)c1OC)C(C)C=C1N(C2)C(=O)N(CCO)C12CCN(Cc1cc(C)cc(C)c1)CC2` (centres unmarked) [compound 819735]: the IC50 came to 140 nM.

As for `COCCN1C(=O)N2Cc3cc(OC)cc(OC)c3C(C)(C)C=C2C12CCN(Cc1cc(OC)cc(OC)c1C)CC2` [compound 819749], the IC50 was determined as 44 nM.

In the case of `COCCN1C(=O)N2Cc3cc(OC)cc(OC)c3C(C)(C)C=C2C12CCN(Cc1cc(OC)cc(OC)c1O)CC2` [compound 819750], the concentration for half-maximal inhibition (IC50) turned out to be 41 nM.

Turning to `COCCN1C(=O)N2Cc3cc(OC)cc(OC)c3C(C)(C)C=C2C12CCN(Cc1cc(OC)cc(OC)c1OC)CC2` [compound 819752], the IC50 was 71 nM.

As for `CCN1C(=O)N2Cc3cc(OC)c(OC)c(OC)c3C(C)C=C2C12CCN(Cc1cccc3cccnc13)CC2` (centres unmarked) [compound 819755], the half-maximal inhibitory concentration (IC50) is 53 nM.

Consider `CCN1C(=O)N2Cc3cc(OC)cc(OC)c3C(C)C=C2C12CCN(Cc1cccc(OC)c1OC)CC2` (centres unmarked) [compound 819767], for which the IC50 amounted to 148 nM.

Regarding `CCN1C(=O)N2Cc3cc(OC)cc(OC)c3C(C)C=C2C12CCN(Cc1ccco1)CC2` (centres unmarked) [compound 819768], the IC50 was found to be 183 nM.

Take `CCN1C(=O)N2Cc3cc(OC)cc(OC)c3C(C)C=C2C12CCN(Cc1ccoc1)CC2` (centres unmarked) [compound 819769]: the 50% inhibitory concentration (IC50) was 190 nM.

As for `CCN1C(=O)N2Cc3cc(OC)cc(OC)c3C(C)C=C2C12CCN(Cc1ccc(C)o1)CC2` (centres unmarked) [compound 819770], the 50% inhibitory concentration (IC50) came out at 267 nM.

As to `CCN1C(=O)N2Cc3cc(OC)cc(OC)c3C(C)C=C2C12CCN(Cc1occ(C)c1C)CC2` (centres unmarked) [compound 819771], the concentration for half-maximal inhibition (IC50) is 205 nM.

On to `CCN1C(=O)N2Cc3cc(OC)cc(OC)c3C(C)C=C2C12CCN(Cc1cccn1C)CC2` (centres unmarked) [compound 819772], for which the IC50 came out at 103 nM.

Consider `CCN1C(=O)N2Cc3cc(OC)cc(OC)c3C(C)(C)C=C2C12CCN(Cc1ccc3nc[nH]c3c1)CC2` [compound 819777], for which the IC50 turned out to be 110 nM.

On to `COc1cc2c(c(OC)c1)C(C)C=C1N(C2)C(=O)N(CC2CC2)C12CCN(Cc1cc(C)cc(C)c1)CC2` (centres unmarked) [compound 819991], for which the 50% inhibitory concentration (IC50) was 120 nM.

For `COc1cc2c(c(OC)c1)C(C)C=C1N(C2)C(=O)N(CC=C(C)C)C12CCN(Cc1cc(C)cc(C)c1)CC2` (centres unmarked) [compound 819995], the IC50 was determined as 330 nM.
